The values below come from patent US20170003292A1, “PAXIP1 AS A BIOMARKER FOR WEE1 INHIBITOR THERAPY” (H. LEE MOFFITT CANCER CENTER AND RESEARCH INSTITUT INC., priority 2014, published 2017).

Holding throughout (type): cell-based
Experiment [1] deals with WEE1 and PAXIP1 positive patient-derived xenografts (PDX). Description: 3-D clonogenic assay of patient-derived xenograft (PDX) lung tumors, Chou-Talalay combination index. As to conditions: combination with cisplatin. The source says:
Two tumors that were selected from a TMA of 68 lung tumors for 3-D clonogenic assays to test synergy of the combination of AZD1775 and cisplatin in these tumors. FIGS. 7A and 7C show percentage of tumor inhibition with different concentrations of AZD1775 and cisplatin. FIGS. 7B and 7D show combination index (CI) values obtained by applying the chou-[…] analysis to the percent inhibition values.

For experiment [2], the system named is lung cancer cell lines. The experiment in a line: small-molecule inhibitor screen, apoptosis in lung cancer cell lines. The following applies: AZD1775 in combination with cisplatin; multiple lung cancer cell lines. From the text: Since posttranslational phosphorylations are used by the DDR to coordinate cellular response to damage, 18 kinases found in this tBRCT PPIN were examined using a small-molecule inhibitor screen.

The test system of experiment [3] is H322 cells. The experiment in a line: caspase-3 mediated apoptosis in H322 cells overexpressing PAXIP1. As to conditions: PAXIP1 overexpression, treated over 72 hours, compared to cells with low levels of PAXIP1.
For experiment [4], the system named is H322 cells. The experiment in a line: mitotic index at the G2/M checkpoint in H322 cells overexpressing full length PAXIP1. As to conditions: H322 cells with overexpression of full length PAXIP1, after AZD1775 treatment.
Experiment [5] deals with WEE1. The experiment in a line: p-CDC2 (p-CDK1) blots as marker for WEE1 inhibition in lung cancer cell lines. The following applies: 15 lung cancer cell lines; AZD1775 as single agent or in combination with cisplatin; in lines with detectable (or elevated) PAXIP1 and WEE1. From the text: FIG. 2 is a series of blots showing PAXIP1, WEE1, and p-CDC2 (a.k.a. p-CDK1) levels in lung cancer cell lines treated with AZD1775 and Cisplatin. D: DMSO; M: AZD1775 only; C: Cisplatin only; M+C: AZD1775 and Cisplatin combination. AZD1775 is an ATP mimetic that targets the kinase activity of WEE1 and is currently being evaluated in clinical trials for several tumor types. Phosphorylation of CDC2 (a.k.a. CDK1) by WEE1 can be used as a marker for WEE1 inhibition.

In experiment [6] the test system is lung cancer cell lines H322, H1648, H1395, H157. Description: cell viability by CellTiterGlo with synergy scores (Bliss model of independence). The following applies: cells that express both PAXIP1 and WEE1; 72 h treatment; combination with cisplatin. The protocol:
Lung adenocarcinoma cell lines 1-H322 (FIGS. 5A, 5B), H1648 (FIGS. 5E, 5F) and H1395 (FIGS. 5G, 5H) and a squamous lung cancer cell line H157 (FIG. 5C, 5D) were treated with AZD1775 and cisplatin either alone or in combination for 1 h and p-CDK1, PAXIP1 and WEE1 levels were measured (FIGS. 5A, 5C, 5E, […]). Cell lines were treated with AZD1775 and cisplatin for 72 h, cell viability was measured by CellTiterGlo and synergy scores were calculated (FIGS. 5B, 5D, 5F, 5H). Depicted in FIGS. 5B, 5D, 5F, and 5H are the three-dimensional dose-response surface curves with various combinations of drug concentrations (left) and the deviation from expected additive values determined by Bliss model of independence (right).

Molecules are shown by their SMILES.

Consider `C=CCn1c(=O)c2cnc(Nc3ccc(N4CCN(C)CC4)cc3)nc2n1-c1cccc(C(C)(C)O)n1` [AZD1775, 2-allyl-1-(6-(2-hydroxypropan-2-yl)pyridin-2-yl)-6-((4-(4-methylpiperazin-1-yl)phenyl)amino)-1H-pyrazolo[3,4-d]pyrimidin-3(2H)-one], for which the “synergy of AZD1775 and cisplatin (tumor inhibition, combination index)” value in experiment [1] was “exhibit synergy”. Further, in experiment [2], the apoptosis result is given as “significant apoptosis”. In addition, the caspase-3 mediated apoptosis result is given as “sustained increase in apoptosis” in experiment [3] and “sustained increase in caspase-3 mediated apoptosis” in experiment [3] (listed as AZD 1775). Besides, the “mitotic index at the G2/M checkpoint” value in experiment [4] is listed as “increased mitotic index”. Moreover, the CDC2 phosphorylation result in experiment [5] is listed as “repression of CDC2 phosphorylation”. For the same compound, in experiment [6], the “synergy of AZD1775 and cisplatin (cell viability)” value was “exhibit synergy”.
